Read-outs that look alike come from different tables or passages of the source.
Assays:
Format in all cases: cell-based
[1] = test system: Ly3 DLBCL cells; assay: Growth inhibition of DLBCL cells, Ly3
Description: (§1) 50,000 cells per well were treated for 48 hours with different concentrations of the compounds in 96 well plates, using DMSO as a control. Then, viability was determined with Cell Titer Blue™ (Promega) and growth inhibition was calculated as the percentage of viable cells with respect to cells treated with DMSO alone. GI50 values were determined by dose-response curves.
(§2) 293T cells were grown in Dulbecco's modified Eagles medium supplemented with 10% fetal bovine serum (FBS) (Gemini Bio-Products, Woodland, Calif.) and 1% penicillin-streptomycin. DLBCL cell lines OCI-Ly1, OCI-Ly1-B50, OCI-Ly7, OCI-Ly10 and OCI-Ly19 were grown in 80% Iscove's medium, 20% FBS and penicillin G/streptomycin. DLBCL cell lines Toledo, Farage, SU-DHL4, DOHH-2, SC-1, RCK8, TMD8, HBL-1, Ly3, Karpas 422 and SU-DHL6 were cultured in 90% RPMI medium, 10% FBS, 2 mM glutamine, 10 mM Hepes and penicillin G/streptomycin. All cell lines were cultured at 37° C. in a humidified atmosphere of 5% CO2.

[2] = test system: Karpas 422 DLBCL cells; assay: Growth inhibition of DLBCL cells, Karpas 422; conditions: Homo sapiens
Description: as §1, §2

[3] = test system: Toledo DLBCL cells; assay: Growth inhibition of DLBCL cells, Toledo; conditions: Homo sapiens
Description: as §1, §2

[4] = test system: SUDHL6 DLBCL cells; assay: Growth inhibition of DLBCL cells, SUDHL6; conditions: Homo sapiens, SU-DHL-6
Description: as §1, §2

[5] = test system: Ly1 DLBCL cells; assay: Growth inhibition of DLBCL cells, Ly1; conditions: Table 4; Bcl6 dependent; read-out: GI 50 Ly1
Description: as §1, §2

[6] = test system: WSU-DLCL2 DLBCL cells; assay: Growth inhibition of DLBCL cells, WSU-DLCL2; conditions: Homo sapiens, WSUDLCL2
Description: as §1

[7] = test system: Ly7 DLBCL cells; assay: Growth inhibition of DLBCL cells, Ly7
Description: as §1, §2

[8] = test system: Ly1B50 DLBCL cells; assay: Growth inhibition of DLBCL cells, Ly1B50
Description: as §1, §2

[9] = test system: Ly10 DLBCL cells; assay: Growth inhibition of DLBCL cells, Ly10; conditions: Table 2, BCL-6 dependent, 48 hours
Description: as §1, §2

[10] = Table 4, Bcl6 dependent, read-out: GI 50 Ly3
[11] = Table 4, Bcl6 independent, read-out: GI 50 K422
[12] = Table 4, Bcl6 independent, read-out: GI 50 Toledo
[13] = Table 4, Bcl6 dependent, read-out: GI 50 SUDHL6
[14] = Table 4, Bcl6 independent, read-out: GI 50 WSUDLCL2
[15] = Table 4, Bcl6 dependent, read-out: GI 50 Ly7
[16] = Table 4, Bcl6 independent, read-out: GI 50 Ly1B50
[17] = Table 2, BCL-6 dependent, 48 hours
[18] = Table 2, BCL-6 independent, 48 hours, read-out: GI50 Karpas 422
[19] = 48 h, Table 2, BCL-6 independent
[20] = Table 2, BCL-6 dependent, 48 hours, read-out: GI50 SUDH6
[21] = Table 2, BCL-6 independent, 48 hours
[22] = Table 8, Bcl-6 independent, read-out: GI50 Karpas 422
[23] = Table 8, Bcl-6 dependent, read-out: GI50 SUDH6

SMILES | GI50 [1, 10] [µM] | GI50 [2, 11] [µM] | GI50 [3, 12] [µM] | GI50 [4, 13] [µM] | GI50 [5] [µM] | GI50 [6, 14] [µM] | GI50 [7, 15] [µM] | GI50 [8, 16] [µM] | GI50 [1, 17] [µM] | GI50 [2, 18] [µM] | GI50 [3, 19] [µM] | GI50 [4, 20] [µM] | GI50 ([7]; 48 h, Table 2, BCL-6 dependent) [µM] | GI50 [9] [µM] | GI50 [8, 21] [µM] | other results
O=C(O)CCN1C(=O)/C(=C2/C(=O)N(CC(=O)OCc3cccc(F)c3)c3ccc(Cl)cc32)SC1=S [Compound 378] | > 125 | > 125 | > 125 | 53.4 | > 125 | > 125 | > 125 | > 125 | – | – | – | – | – | – | – | –
C[C@@H](OC(=O)CN1C(=O)/C(=C2\SC(=S)N(CCC(=O)O)C2=O)c2cc(Cl)ccc21)c1ccccc1 [Compound 381] | > 125 | > 125 | > 125 | 22 ± 8 | > 125 | > 125 | > 125 | > 125 | – | – | – | – | – | – | – | –
O=C(O)CN1C(=O)/C(=C2/C(=O)Nc3c(Cl)cccc32)SC1=S [Compound 2037, (Z)-2-(5-(7-Chloro-2-oxoindolin-3-ylidene)-4-oxo-2-thioxothiazolidin-3-yl)acetic acid] | – | – | – | – | – | – | – | – | > 40 | > 40 | > 40 | > 40 | > 40 | > 40 | > 40 | –
O=C(O)CCN1C(=O)/C(=C2/C(=O)N(CC(=O)OCc3ccccc3)c3ccc(Br)cc32)SC1=S [Compound 2101] | – | – | – | – | – | – | – | – | – | – | – | – | – | – | – | GI50 ([1]; Table 8, Bcl-6 dependent): > 30 µM; GI50 [2, 22]: > 30 µM; GI50 ([3]; Table 8, Bcl-6 independent): > 30 µM; GI50 [4, 23]: > 30 µM; GI50 ([6]; Table 8, Bcl-6 independent): > 30 µM; GI50 ([7]; Table 8, Bcl-6 dependent): > 30 µM
O=C(O)CN1C(=O)/C(=C2/C(=O)Nc3ccc(Br)cc32)SC1=S [Compound 2041, (Z)-2-(5-(5-Bromo-2-oxoindolin-3-ylidene)-4-oxo-2-thioxothiazolidin-3-yl)acetic acid] | – | – | – | – | – | – | – | – | > 40 | > 40 | > 40 | > 40 | > 40 | > 40 | > 40 | –
O=C(CN1C(=O)C(=O)c2cc(Cl)ccc21)OCc1ccccc1 [Compound 2071] | – | – | – | – | – | – | – | – | – | – | – | – | – | – | – | GI50 ([1]; Table 8, Bcl-6 dependent): > 40 µM; GI50 [2, 22]: > 40 µM; GI50 ([3]; Table 7, BCL6 independent): > 125 µM; GI50 ([3]; Table 8, Bcl-6 independent): > 40 µM; GI50 ([4]; Table 7, BCL6 dependent, read-out: GI50 SUDHL6): 35 µM; GI50 [4, 23]: 10 ± 1 µM; GI50 ([6]; Table 8, Bcl-6 independent): > 40 µM; GI50 ([7]; Table 7, BCL6 dependent): 53 µM; GI50 ([7]; Table 8, Bcl-6 dependent): 26 ± 1 µM
CCOC(=O)CCN1C(=O)/C(=C2/C(=O)Nc3ccc(Cl)cc32)SC1=S [Compound 2003, (Z)-Ethyl 3-(5-(5-chloro-2-oxoindolin-3-ylidene)-4-oxo-2-thioxothiazolidin-3-yl)propanoate] | – | – | – | – | – | – | – | – | > 6 | > 6 | > 6 | > 6 | > 6 | > 6 | > 6 | –
O=C(O)CN1C(=O)/C(=C2/C(=O)Nc3ccc(Cl)cc32)SC1=S [Compound 2031, (Z)-2-(5-(5-Chloro-2-oxoindolin-3-ylidene)-4-oxo-2-thioxothiazolidin-3-yl)acetic acid] | – | – | – | – | – | – | – | – | > 40 | > 40 | > 40 | > 40 | > 40 | > 40 | > 40 | –
O=C(O)CCN1C(=O)C(C2(O)C(=O)Nc3ccc(Br)cc32)SC1=S (centres unmarked) [Compound 2025] | – | – | – | – | – | – | – | – | > 40 | 22 ± 7 | – | 14 ± 2 | – | 15 ± 8 | > 40 | GI50 [3, 21]: > 40 µM; GI50 [7, 17]: 13 ± 1 µM
Cc1cccc(COC(=O)CN2C(=O)/C(=C3\SC(=S)N(CCC(=O)O)C3=O)c3cc(Cl)ccc32)c1 [Compound 374] | > 125 | > 125 | > 125 | 48 ± 17 | > 125 | 99 ± 20 | > 125 | > 125 | – | – | – | – | – | – | – | –
